Data taken from PubChem BioAssay (NCI).
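Following 48 hours of exposure in 96-well plates, responses at five concentrations were used to interpolate endpoints linearly. The concentration for 50% growth inhibition is given as GI50. TGI denotes the concentration required for complete inhibition of growth.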

How the values were obtained:
Assay in all cases: inhibition of tumour cell growth, NCI panel, 48 h
SK-MEL-28 melanoma = system: SK-MEL-28 melanoma
HCT-15 colon = system: HCT-15 colon
NCI-H23 lung = system: NCI-H23 lung
NCI-H522 lung = system: NCI-H522 lung
A549 NSCLC = system: A549 NSCLC
ACHN renal = system: ACHN renal
SK-OV-3 ovarian = system: SK-OV-3 ovarian
HOP-92 NSCLC = system: HOP-92 NSCLC
MALME-3M melanoma = system: MALME-3M melanoma
CAKI-1 renal = system: CAKI-1 renal
SNB-75 CNS = system: SNB-75 CNS
SN12C renal = system: SN12C renal
EKVX NSCLC = system: EKVX NSCLC
LOX IMVI melanoma = system: LOX IMVI melanoma
HT29 colon = system: HT29 colon
SF-268 CNS = system: SF-268 CNS
PC-3 prostate = system: PC-3 prostate
HCC-2998 colon = system: HCC-2998 colon
TK-10 renal = system: TK-10 renal
BT-549 breast = system: BT-549 breast
KM12 colon = system: KM12 colon
NCI-H226 lung = system: NCI-H226 lung
OVCAR-3 ovarian = system: OVCAR-3 ovarian
OVCAR-5 ovarian = system: OVCAR-5 ovarian
UACC-257 melanoma = system: UACC-257 melanoma
UO-31 renal = system: UO-31 renal
T-47D breast = system: T-47D breast
SNB-19 CNS = system: SNB-19 CNS
OVCAR-4 ovarian = system: OVCAR-4 ovarian
HCT-116 colon = system: HCT-116 colon
HS 578T breast = system: HS 578T breast
MDA-MB-231 breast = system: MDA-MB-231 breast
HL-60(TB) leukemia = system: HL-60(TB) leukemia
SK-MEL-5 melanoma = system: SK-MEL-5 melanoma
786-0 renal = system: 786-0 renal
RPMI-8226 leukemia = system: RPMI-8226 leukemia
SF-539 CNS = system: SF-539 CNS
SR leukemia = system: SR leukemia
MCF7 breast = system: MCF7 breast
COLO 205 colon = system: COLO 205 colon
M14 melanoma = system: M14 melanoma
RXF 393 renal = system: RXF 393 renal
SW-620 colon = system: SW-620 colon
SF-295 CNS = system: SF-295 CNS
A498 renal = system: A498 renal
U251 CNS = system: U251 CNS
IGROV1 ovarian = system: IGROV1 ovarian
K-562 leukemia = system: K-562 leukemia
NCI-H460 lung = system: NCI-H460 lung
MOLT-4 leukemia = system: MOLT-4 leukemia
MDA-MB-435 = system: MDA-MB-435
NCI/ADR-RES ovarian = system: NCI/ADR-RES ovarian
SK-MEL-2 melanoma = system: SK-MEL-2 melanoma
UACC-62 melanoma = system: UACC-62 melanoma
OVCAR-8 ovarian = system: OVCAR-8 ovarian
CCRF-CEM leukemia = system: CCRF-CEM leukemia
HOP-62 NSCLC = system: HOP-62 NSCLC
DU-145 prostate = system: DU-145 prostate

For `Cn1cc(Nc2nccc(-c3ccc4c(c3)CN(C3COC3)CC[C@H]4NC(=O)c3cn(C(C)(C)C)nn3)n2)cn1`, the GI50 (SK-MEL-28 melanoma) was 46.9 µM, the TGI (SK-MEL-28 melanoma) was > 100 µM and the GI50 (HCT-15 colon) was > 100 µM. For the same molecule, the TGI (HCT-15 colon) was > 100 µM, the GI50 (NCI-H23 lung) was > 100 µM and the TGI (NCI-H23 lung) was > 100 µM. The GI50 (NCI-H522 lung) was 96.1 µM, the TGI (NCI-H522 lung) was > 100 µM and the GI50 (A549 NSCLC) was 86.8 µM. For the same molecule, the TGI (A549 NSCLC) was > 100 µM, the GI50 (ACHN renal) was 66.3 µM and the TGI (ACHN renal) was > 100 µM. For the same molecule, the GI50 (SK-OV-3 ovarian) was 62.5 µM, the TGI (SK-OV-3 ovarian) was > 100 µM and the GI50 (HOP-92 NSCLC) was 16 µM. The TGI (HOP-92 NSCLC) was 89.7 µM, the GI50 (MALME-3M melanoma) was 38 µM and the TGI (MALME-3M melanoma) was > 100 µM. For the same molecule, the GI50 (CAKI-1 renal) was 37.7 µM, the TGI (CAKI-1 renal) was > 100 µM and the GI50 (SNB-75 CNS) was 24.4 µM. For the same molecule, the TGI (SNB-75 CNS) was > 100 µM, the GI50 (SN12C renal) was 75.3 µM and the TGI (SN12C renal) was > 100 µM. For the same molecule, the GI50 (EKVX NSCLC) was > 100 µM, the TGI (EKVX NSCLC) was > 100 µM and the GI50 (LOX IMVI melanoma) was 38.5 µM. The TGI (LOX IMVI melanoma) was > 100 µM, the GI50 (HT29 colon) was 33 µM and the TGI (HT29 colon) was > 100 µM. For the same molecule, the GI50 (SF-268 CNS) was > 100 µM, the TGI (SF-268 CNS) was > 100 µM and the GI50 (PC-3 prostate) was > 100 µM. The TGI (PC-3 prostate) was > 100 µM, the GI50 (HCC-2998 colon) was > 100 µM and the TGI (HCC-2998 colon) was > 100 µM. For the same molecule, the GI50 (TK-10 renal) was 59.5 µM, the TGI (TK-10 renal) was > 100 µM and the GI50 (BT-549 breast) was > 100 µM. The TGI (BT-549 breast) was > 100 µM, the GI50 (KM12 colon) was 72.6 µM and the TGI (KM12 colon) was > 100 µM. For the same molecule, the GI50 (NCI-H226 lung) was 38.9 µM, the TGI (NCI-H226 lung) was > 100 µM and the GI50 (OVCAR-3 ovarian) was > 100 µM. The TGI (OVCAR-3 ovarian) was > 100 µM, the GI50 (OVCAR-5 ovarian) was 45.2 µM and the TGI (OVCAR-5 ovarian) was > 100 µM. For the same molecule, the GI50 (UACC-257 melanoma) was > 100 µM, the TGI (UACC-257 melanoma) was > 100 µM and the GI50 (UO-31 renal) was 53.1 µM. For the same molecule, the TGI (UO-31 renal) was > 100 µM, the GI50 (T-47D breast) was 47.9 µM and the TGI (T-47D breast) was > 100 µM. The GI50 (SNB-19 CNS) was > 100 µM, the TGI (SNB-19 CNS) was > 100 µM and the GI50 (OVCAR-4 ovarian) was > 100 µM. The TGI (OVCAR-4 ovarian) was > 100 µM, the GI50 (HCT-116 colon) was 73.6 µM and the TGI (HCT-116 colon) was > 100 µM. For the same molecule, the GI50 (HS 578T breast) was 29.7 µM, the TGI (HS 578T breast) was > 100 µM and the GI50 (MDA-MB-231 breast) was 77.3 µM. For the same molecule, the TGI (MDA-MB-231 breast) was > 100 µM, the GI50 (HL-60(TB) leukemia) was > 100 µM and the TGI (HL-60(TB) leukemia) was > 100 µM. For the same molecule, the GI50 (SK-MEL-5 melanoma) was 26.3 µM, the TGI (SK-MEL-5 melanoma) was > 100 µM and the GI50 (786-0 renal) was 50.5 µM. For the same molecule, the TGI (786-0 renal) was > 100 µM, the GI50 (RPMI-8226 leukemia) was > 100 µM and the TGI (RPMI-8226 leukemia) was > 100 µM. For the same molecule, the GI50 (SF-539 CNS) was 99.1 µM, the TGI (SF-539 CNS) was > 100 µM and the GI50 (SR leukemia) was > 100 µM. The TGI (SR leukemia) was > 100 µM, the GI50 (MCF7 breast) was 41.4 µM and the TGI (MCF7 breast) was > 100 µM. For the same molecule, the GI50 (COLO 205 colon) was 30.6 µM, the TGI (COLO 205 colon) was > 100 µM and the GI50 (M14 melanoma) was 36.6 µM. For the same molecule, the TGI (M14 melanoma) was > 100 µM, the GI50 (RXF 393 renal) was 26.6 µM and the TGI (RXF 393 renal) was > 100 µM. The GI50 (SW-620 colon) was > 100 µM, the TGI (SW-620 colon) was > 100 µM and the GI50 (SF-295 CNS) was > 100 µM. The TGI (SF-295 CNS) was > 100 µM, the GI50 (A498 renal) was 76.5 µM and the TGI (A498 renal) was > 100 µM. The GI50 (U251 CNS) was > 100 µM, the TGI (U251 CNS) was > 100 µM and the GI50 (IGROV1 ovarian) was 32 µM. For the same molecule, the TGI (IGROV1 ovarian) was > 100 µM, the GI50 (K-562 leukemia) was 28 µM and the TGI (K-562 leukemia) was > 100 µM. The GI50 (NCI-H460 lung) was 85.9 µM, the TGI (NCI-H460 lung) was > 100 µM and the GI50 (MOLT-4 leukemia) was 89.7 µM. For the same molecule, the TGI (MOLT-4 leukemia) was > 100 µM, the GI50 (MDA-MB-435) was 42.3 µM and the TGI (MDA-MB-435) was > 100 µM. The GI50 (NCI/ADR-RES ovarian) was > 100 µM, the TGI (NCI/ADR-RES ovarian) was > 100 µM and the GI50 (SK-MEL-2 melanoma) was > 100 µM. For the same molecule, the TGI (SK-MEL-2 melanoma) was > 100 µM, the GI50 (UACC-62 melanoma) was 23.1 µM and the TGI (UACC-62 melanoma) was > 100 µM. The GI50 (OVCAR-8 ovarian) was > 100 µM, the TGI (OVCAR-8 ovarian) was > 100 µM and the GI50 (CCRF-CEM leukemia) was > 100 µM. For the same molecule, the TGI (CCRF-CEM leukemia) was > 100 µM, the GI50 (HOP-62 NSCLC) was > 100 µM and the TGI (HOP-62 NSCLC) was > 100 µM. For the same molecule, the GI50 (DU-145 prostate) was > 100 µM and the TGI (DU-145 prostate) was > 100 µM.
